Among the data in PMC12217461 (Antimicrobial Agents and Chemotherapy, 2025) are MIC values, retold here.

Holding throughout (assay type): cell-based
The test system of one assay is E. coli IMP-2. The experiment in a line: MIC broth microdilution, recombinant E. coli. To be noted: Escherichia coli, IMP2; IMP-2-like; TAN/XER fixed at 4 µg/mL, XER 8 µg/mL in MEM-XER; read-out: Minimal inhibitory concentration.
For a further assay, the system named is P. aeruginosa ATCC 27853. The experiment in a line: microbe, parasite or virus in culture. The conditions noted are these: Pseudomonas aeruginosa, ATCC27853; QC 4; no acquired β-lactamase; TAN/XER fixed at 4 µg/mL, XER 8 µg/mL in MEM-XER; read-out: Minimal inhibitory concentration. How it is done: (§1) To assess the inhibitory potency of XER, susceptibility testing was performed by broth microdilution method, determining the minimal inhibitory concentrations (MICs) of different antibiotics or antibiotic plus β-lactamase inhibitor combinations, including cefepime (FEP), imipenem (IPM), meropenem (MEM), and their combinations with XER (FEP-XER, IPM-XER, and MEM-XER). All data obtained with XER-based combinations were compared with data with TAN-based combinations, FEP-TAN, IPM-TAN, and MEM-TAN ([16]). FEP was purchased from Sigma-Aldrich (Saint-Louis, USA), whereas MEM was from HuiChem (Shanghai, China). […] MICs were determined in triplicate in cation-adjusted Mueller-Hinton (MH) broth (Bio-Rad, Marnes-la-Coquette, France) according to the CLSI guidelines ([53]). The results were interpreted according to the decrease in MIC value for the same antibiotic or combination of the corresponding recombinant strain producing the MBL enzyme. […] In a recent phase I clinical evaluation, XER was combined with cefiderocol. However, as this latter β-lactam substrate is known to be poorly hydrolyzed by IMP enzymes, it was not considered for the evaluation of XER inhibitory activity in this study. Instead, carbapenems were used as a substrate to evaluate the β-lactamase IMP activity in the presence or absence of XER and TAN, as it was deemed more specific for the IMP carbapenemase activity.

Assay [1] concerns Klebsiella pneumoniae ATCC BAA-2814. The experiment in a line: microbe, parasite or virus in culture. The conditions noted are these: ATCCBAA2814, read-out: Minimal inhibitory concentration. The method, then: as §1
For a further assay, the system named is E. coli NDM-1. The experiment in a line: MIC broth microdilution, recombinant E. coli. The conditions noted are these: Escherichia coli, NDM1; NDM-1-like; TAN/XER fixed at 4 µg/mL, XER 8 µg/mL in MEM-XER; read-out: Minimal inhibitory concentration.
Source text: (§2) Genes encoding different acquired IMP-like enzymes suspected to be resistant to XER (blaIMP-6, blaIMP-7, blaIMP-10, blaIMP-14, blaIMP-26, blaIMP-34, and blaIMP-59) were amplified by PCR, and corresponding amplicons were cloned into plasmid pUCP24 and expressed in E. coli TOP10. The following recombinant E. coli strains producing IMP-1, IMP-4, IMP-19, and NDM-1 were used from a previous study ([16]). […] For that purpose, a list of primers was designed and provided as Table S1. […] The nomenclature used in this study was according to the BBL sequence numbering ([52]).
as §1
For orientation: In broth dilution the organism is exposed to a series of concentrations in liquid medium.

A further assay concerns E. coli IMP-10. The experiment in a line: MIC broth microdilution, recombinant E. coli. To be noted: Escherichia coli, IMP10; IMP-1-like, V67F; TAN/XER fixed at 4 µg/mL, XER 8 µg/mL in MEM-XER; read-out: Minimal inhibitory concentration.
Source text: as §2, §1

For assay [2], the system named is E. coli IMP-14 Mutant 1 (S65G). The experiment in a line: MIC broth microdilution, recombinant E. coli. The conditions noted are these: Escherichia coli; IMP-14 S65G; TAN/XER fixed at 4 µg/mL, XER 8 µg/mL in MEM-XER; read-out: Minimal inhibitory concentration.
Source text: as §2, §1

The test system of assay [3] is E. coli IMP-14 Mutant 3 (N178S). The experiment in a line: MIC broth microdilution, recombinant E. coli. The conditions noted are these: Escherichia coli; IMP-14 N178S; TAN/XER fixed at 4 µg/mL, XER 8 µg/mL in MEM-XER; read-out: Minimal inhibitory concentration.
Source text: as §2, §1

Assay [4] relates to E. coli IMP-14 Mutant 2 (H174N). Put plainly: MIC broth microdilution, recombinant E. coli. To be noted: Escherichia coli; IMP-14 H174N; TAN/XER fixed at 4 µg/mL, XER 8 µg/mL in MEM-XER; read-out: Minimal inhibitory concentration.
Source text: as §2, §1

Assay [5] concerns E. coli IMP-14 Mutant 4 (D227Y). Put plainly: MIC broth microdilution, recombinant E. coli. To be noted: Escherichia coli; IMP-14 D227Y; TAN/XER fixed at 4 µg/mL, XER 8 µg/mL in MEM-XER; read-out: Minimal inhibitory concentration.
Source text: as §2, §1

The subject of another assay is E. coli NDM-1* (S262G). Put plainly: MIC broth microdilution, recombinant E. coli. The conditions noted are these: Escherichia coli, TAN/XER fixed at 4 µg/mL, XER 8 µg/mL in MEM-XER, read-out: Minimal inhibitory concentration.
Source text: as §2, §1

In assay [6] the test system is E. coli IMP-14 Mutant 5 (Y233N). The experiment in a line: MIC broth microdilution, recombinant E. coli. The conditions noted are these: Escherichia coli; IMP-14 Y233N; TAN/XER fixed at 4 µg/mL, XER 8 µg/mL in MEM-XER; read-out: Minimal inhibitory concentration.
Source text: as §2, §1

In another assay the test system is E. coli IMP-4. Put plainly: MIC broth microdilution, recombinant E. coli. To be noted: Escherichia coli, IMP4; IMP-4 like; TAN/XER fixed at 4 µg/mL, XER 8 µg/mL in MEM-XER; read-out: Minimal inhibitory concentration.
Source text: as §2, §1

The subject of another assay is E. coli IMP-6. Put plainly: MIC broth microdilution, recombinant E. coli. The conditions noted are these: Escherichia coli, IMP6; IMP-1-like, S262G; TAN/XER fixed at 4 µg/mL, XER 8 µg/mL in MEM-XER; read-out: Minimal inhibitory concentration.
Source text: as §2, §1

Another assay deals with E. coli IMP-59. The experiment in a line: MIC broth microdilution, recombinant E. coli. To be noted: Escherichia coli, IMP59; IMP-4 like, N233Y; TAN/XER fixed at 4 µg/mL, XER 8 µg/mL in MEM-XER; read-out: Minimal inhibitory concentration.
Source text: as §2, §1

A further assay concerns E. coli IMP-1. Put plainly: MIC broth microdilution, recombinant E. coli. To be noted: Escherichia coli, IMP1; IMP-1-like; TAN/XER fixed at 4 µg/mL, XER 8 µg/mL in MEM-XER; read-out: Minimal inhibitory concentration.
Source text: as §2, §1

Another assay relates to E. coli IMP-14. Put plainly: MIC broth microdilution, recombinant E. coli. The conditions noted are these: Escherichia coli, IMP14; IMP-2-like, multiple substitutions; TAN/XER fixed at 4 µg/mL, XER 8 µg/mL in MEM-XER; read-out: Minimal inhibitory concentration.
Source text: as §2, §1

The test system of a further assay is E. coli IMP-26. The experiment in a line: MIC broth microdilution, recombinant E. coli. To be noted: Escherichia coli, IMP26; IMP-4 like, V67F; TAN/XER fixed at 4 µg/mL, XER 8 µg/mL in MEM-XER; read-out: Minimal inhibitory concentration.
Source text: as §2, §1

`CO/N=C(\C(=O)N[C@@H]1C(=O)N2C(C(=O)[O-])=C(C[N+]3(C)CCCC3)CS[C@H]12)c1csc(N)n1` [FEP, cefepime]: the MIC is 8 µg/mL with E. coli IMP-2; 1 µg/mL in the assay with P. aeruginosa ATCC 27853; above 256 µg/mL in [1]; 4 µg/mL in the assay on E. coli NDM-1; 64 µg/mL in the assay with E. coli IMP-10; 128 µg/mL in [2]. In addition, the MIC in assay [3] is 128 µg/mL; in [4], 64 µg/mL; in assay [5], 128 µg/mL; with E. coli NDM-1* (S262G), 1 µg/mL; in [6], 16 µg/mL; in the assay with E. coli IMP-4, 8 µg/mL. Moreover, the MIC in the assay with E. coli IMP-6 came out at 4 µg/mL; in the assay with E. coli IMP-59, 8 µg/mL; in the assay on E. coli IMP-1 it was 32 µg/mL; with E. coli IMP-14, 64 µg/mL; in the assay on E. coli IMP-26, 32 µg/mL.

With `C[C@@H](O)[C@H]1C(=O)N2C(C(=O)O)=C(SCCN=CN)C[C@H]12` [IPM, imipenem], the MIC was determined as 0.5 µg/mL in the assay with E. coli IMP-2; 1 µg/mL in the assay on P. aeruginosa ATCC 27853; 16 µg/mL in assay [1]; 2 µg/mL in the assay with E. coli NDM-1; 16 µg/mL with E. coli IMP-10; 8 µg/mL in assay [2]. For the same compound, the MIC came out at 2 µg/mL in [3]; 2 µg/mL in assay [4]; 8 µg/mL in assay [5]; 0.25 µg/mL in the assay on E. coli NDM-1* (S262G); 32 µg/mL in assay [6]; 1 µg/mL in the assay with E. coli IMP-4. Moreover, the MIC in the assay on E. coli IMP-6 is at most 0.25 µg/mL; with E. coli IMP-59 it was 0.5 µg/mL; in the assay on E. coli IMP-1, 4 µg/mL; in the assay with E. coli IMP-14, 1 µg/mL; in the assay on E. coli IMP-26, 8 µg/mL.

In the case of `C[C@@H](O)[C@H]1C(=O)N2C(C(=O)O)=C(S[C@@H]3CN[C@H](C(=O)N(C)C)C3)[C@H](C)[C@H]12` [MEM, meropenem], the MIC came to 1 µg/mL in the assay with E. coli IMP-2; 0.5 µg/mL in the assay on P. aeruginosa ATCC 27853; 64 µg/mL in assay [1]; 2 µg/mL in the assay with E. coli NDM-1; 64 µg/mL with E. coli IMP-10; 8 µg/mL in assay [2]. Moreover, the MIC in [3] came out at 8 µg/mL; in [4], 4 µg/mL; in assay [5], 8 µg/mL; in the assay on E. coli NDM-1* (S262G), 32 µg/mL; in assay [6], 1 µg/mL; with E. coli IMP-4, 8 µg/mL. In addition, the MIC in the assay on E. coli IMP-6 came out at 64 µg/mL; in the assay with E. coli IMP-59 it was 8 µg/mL; with E. coli IMP-1 it was 8 µg/mL; in the assay on E. coli IMP-14, 4 µg/mL; with E. coli IMP-26, 128 µg/mL.
